Laboratory results: patent US9102752B2, “Peptide vaccine for prevention and immunotherapy of dementia of the Alzheimer's type” (United Biomedical, Inc., priority 2013, dated 2015)

Tests used:
[1] = tested on: anti-Aβ antibodies in sera of vaccinated patients; test: Epitope mapping, competitive binding inhibition EIA with patient sera (10-mer peptides, IC50); parameters: species or system human; Epitope mapping, fine specificity analysis, serum of subject P210: unit not given here; details: for Epitope mapping, fine specificity analysis, serum of subject P101: serum 16 wpi of vaccinated patient P101; for Epitope mapping, fine specificity analysis, serum of subject P102: serum 16 wpi of vaccinated patient P102; for Epitope mapping, fine specificity analysis, serum of subject P103: serum 16 wpi of vaccinated patient P103; for Epitope mapping, fine specificity analysis, serum of subject P104: serum 16 wpi of vaccinated patient P104; for Epitope mapping, fine specificity analysis, serum of subject P105: serum 16 wpi of vaccinated patient P105; for Epitope mapping, fine specificity analysis, serum of subject P106: serum 16 wpi of vaccinated patient P106; for Epitope mapping, fine specificity analysis, serum of subject P107: serum 16 wpi of vaccinated patient P107; for Epitope mapping, fine specificity analysis, serum of subject P108: serum 16 wpi of vaccinated patient P108; for Epitope mapping, fine specificity analysis, serum of subject P109: serum 16 wpi of vaccinated patient P109; for Epitope mapping, fine specificity analysis, serum of subject P201: serum 16 wpi of vaccinated patient P201; for Epitope mapping, fine specificity analysis, serum of subject P202: serum 16 wpi of vaccinated patient P202; for Epitope mapping, fine specificity analysis, serum of subject P203: serum 16 wpi of vaccinated patient P203; for Epitope mapping, fine specificity analysis, serum of subject P204: serum 16 wpi of vaccinated patient P204; for Epitope mapping, fine specificity analysis, serum of subject P205: serum 16 wpi of vaccinated patient P205; for Epitope mapping, fine specificity analysis, serum of subject P206: serum 16 wpi of vaccinated patient P206; for Epitope mapping, fine specificity analysis, serum of subject P207: serum 16 wpi of vaccinated patient P207; for Epitope mapping, fine specificity analysis, serum of subject P208: serum 16 wpi of vaccinated patient P208; for Epitope mapping, fine specificity analysis, serum of subject P209: serum 16 wpi of vaccinated patient P209; for Epitope mapping, fine specificity analysis, serum of subject P210: serum 16 wpi of vaccinated patient P210
[2] = tested on: anti-Aβ antibodies in macaque antisera; test: Specificity analysis (10-mer peptide ELISA) of antisera from Cynomolgus macaques; type: binding
[3] = antisera of macaques given UBI AD Vaccine 150 μg/dose, 9 WPI
[4] = antisera of macaques given UBI AD Vaccine 150 μg/dose, 15 WPI
[5] = antisera of macaques given UBI AD Vaccine 750 μg/dose, 9 WPI
[6] = antisera of macaques given UBI AD Vaccine 750 μg/dose, 15 WPI

Row | Substance | Epitope mapping, fine specificity analysis, serum of subject P101 [1] | Epitope mapping, fine specificity analysis, serum of subject P102 [1] | Epitope mapping, fine specificity analysis, serum of subject P103 [1] | Epitope mapping, fine specificity analysis, serum of subject P104 [1] | Epitope mapping, fine specificity analysis, serum of subject P105 [1] | Epitope mapping, fine specificity analysis, serum of subject P106 [1] | Epitope mapping, fine specificity analysis, serum of subject P107 [1] | Epitope mapping, fine specificity analysis, serum of subject P108 [1] | Epitope mapping, fine specificity analysis, serum of subject P109 [1] | Epitope mapping, fine specificity analysis, serum of subject P201 [1] | Epitope mapping, fine specificity analysis, serum of subject P202 [1] | Epitope mapping, fine specificity analysis, serum of subject P203 [1] | Epitope mapping, fine specificity analysis, serum of subject P204 [1] | Epitope mapping, fine specificity analysis, serum of subject P205 [1] | Epitope mapping, fine specificity analysis, serum of subject P206 [1] | Epitope mapping, fine specificity analysis, serum of subject P207 [1] | Epitope mapping, fine specificity analysis, serum of subject P208 [1] | Epitope mapping, fine specificity analysis, serum of subject P209 [1] | Epitope mapping, fine specificity analysis, serum of subject P210 [1] | Reactivity of antisera with peptide (specificity analysis ELISA) [2, 3] | also measured
1 | 18 (EFRHDSGYEV; PEPTIDE (1)..(10) Abeta 3-12 or APP 770(E674-V683); listed as Homo sapiens) [compound 18] | 0 | 0 | 0 | 0 | 0 | 0 | 0 | 0 | 0 | 0 | 0 | 0 | 0 | 0 | 0 | 0 | 0 | 0 | 0 | 0.047 | Reactivity of antisera with peptide (specificity analysis ELISA) [2, 4]: 0.060; Reactivity of antisera with peptide (specificity analysis ELISA) [2, 5]: 0.042; Reactivity of antisera with peptide (specificity analysis ELISA) [2, 6]: 0.052
2 | 19 (FRHDSGYEVH; PEPTIDE (1)..(10) Abeta 4-13 or APP 770(F675-H684); listed as Homo sapiens) [compound 19] | 0 | 0 | 0 | 0 | 0 | 0 | 0 | 0 | 0 | 0 | 0 | 0 | 0 | 0 | 0 | 0 | 0 | 0 | 0 | 0.085 | Reactivity of antisera with peptide (specificity analysis ELISA) [2, 4]: 0.076; Reactivity of antisera with peptide (specificity analysis ELISA) [2, 5]: 0.066; Reactivity of antisera with peptide (specificity analysis ELISA) [2, 6]: 0.096
3 | 20 (RHDSGYEVHH; PEPTIDE (1)..(10) Abeta 5-14 or APP 770(R676-H685); listed as Homo sapiens) [compound 20] | 0 | 0 | 0 | 0 | 0 | 0 | 0 | 0 | 0 | 0 | 0 | 0 | 0 | 0 | 0 | 0 | 0 | 0 | 0 | 0.296 | Reactivity of antisera with peptide (specificity analysis ELISA) [2, 4]: 0.400; Reactivity of antisera with peptide (specificity analysis ELISA) [2, 5]: 0.453; Reactivity of antisera with peptide (specificity analysis ELISA) [2, 6]: 0.461
4 | 21 (HDSGYEVHHQ; PEPTIDE (1)..(10) Abeta 6-15 or APP 770(H677-Q686); listed as Homo sapiens) [compound 21] | 0 | 0 | 0 | 0 | 0 | 0 | 0 | 0 | 0 | 0 | 0 | 0 | 0 | 0 | 0 | 0 | 0 | 0 | 0 | 0.266 | Reactivity of antisera with peptide (specificity analysis ELISA) [2, 4]: 0.494; Reactivity of antisera with peptide (specificity analysis ELISA) [2, 5]: 0.419; Reactivity of antisera with peptide (specificity analysis ELISA) [2, 6]: 0.332
5 | 22 (DSGYEVHHQK; PEPTIDE (1)..(10) Abeta 7-16 or APP 770(D678-K687); listed as Homo sapiens) [compound 22] | 214 | 0 | 0 | 0 | 0 | 0 | 0 | 0 | 0 | 0 | 0 | 0 | 0 | 0 | 0 | 0 | 0 | 0 | 0 | 0.270 | Reactivity of antisera with peptide (specificity analysis ELISA) [2, 4]: 0.289; Reactivity of antisera with peptide (specificity analysis ELISA) [2, 5]: 0.405; Reactivity of antisera with peptide (specificity analysis ELISA) [2, 6]: 0.197
6 | 23 (SGYEVHHQKL; PEPTIDE (1)..(10) Abeta 8-17 or APP 770(S679-L688); listed as Homo sapiens) [compound 23] | 0 | 0 | 0 | 0 | 0 | 0 | 0 | 0 | 0 | 0 | 0 | 0 | 0 | 0 | 0 | 0 | 0 | 0 | 0 | 0.097 | Reactivity of antisera with peptide (specificity analysis ELISA) [2, 4]: 0.071; Reactivity of antisera with peptide (specificity analysis ELISA) [2, 5]: 0.077; Reactivity of antisera with peptide (specificity analysis ELISA) [2, 6]: 0.082
7 | 24 (GYEVHHQKLV; PEPTIDE (1)..(10) Abeta 9-18 or APP 770(G680-V689); listed as Homo sapiens) [compound 24] | 0 | 0 | 0 | 0 | 0 | 0 | 0 | 0 | 0 | 0 | 0 | 0 | 0 | 0 | 0 | 16 | 0 | 0 | 0 | 0.055 | Reactivity of antisera with peptide (specificity analysis ELISA) [2, 4]: 0.067; Reactivity of antisera with peptide (specificity analysis ELISA) [2, 5]: 0.052; Reactivity of antisera with peptide (specificity analysis ELISA) [2, 6]: 0.059
